Measurements from patent publication US9981973B2, “Tricyclic compounds as inhibitors of immunosuppression mediated by tryptophan metabolization” (NewLink Genetics Corporation, priority 2013, dated 2018).

Molecular target: purified human TDO protein (Homo sapiens (Human), UniProt P48775)
Assay: Enzymatic TDO assay
Assay type: biochemical
Procedure: Differently from the IDO activity assay, no methylene blue is added to the assay. The inhibitors were initially diluted in DMSO at 100 mM and were diluted in potassium phosphate 50 mM, added to the reaction mixture at final concentrations raging from 30 μM to 5 nM and preincubated with the enzyme for 5 min at 25° C. The reaction was started by addition of L-tryptophan to 20 μM and incubated 15 min at 37° C. The reaction was stopped by addition of 0.5 vol of 30% trichloroacetic acid and incubated 30 min at 60° C. to hydrolyze N-formylkynurenine to kynurenine. The reaction was centrifuged at 3400 g for 5 min to remove precipitated protein and the supernatant was reacted with 2% (w/v) of p-dimethylaminobenzaldehyde in acetic acid. The reaction was incubated 10 min at 25° C. and read at 480 nm in a spectrophotometer. Control samples with no TDO inhibitor, or with no TDO enzyme were used as controls to set the parameters for the non-linear regressions necessary for determination of the IC50 for each compound. Nonlinear regressions and determination of the IC50 values were performed using the GraphPad Prism 4 software.

Sequence of purified human TDO protein (P48775 whole entry): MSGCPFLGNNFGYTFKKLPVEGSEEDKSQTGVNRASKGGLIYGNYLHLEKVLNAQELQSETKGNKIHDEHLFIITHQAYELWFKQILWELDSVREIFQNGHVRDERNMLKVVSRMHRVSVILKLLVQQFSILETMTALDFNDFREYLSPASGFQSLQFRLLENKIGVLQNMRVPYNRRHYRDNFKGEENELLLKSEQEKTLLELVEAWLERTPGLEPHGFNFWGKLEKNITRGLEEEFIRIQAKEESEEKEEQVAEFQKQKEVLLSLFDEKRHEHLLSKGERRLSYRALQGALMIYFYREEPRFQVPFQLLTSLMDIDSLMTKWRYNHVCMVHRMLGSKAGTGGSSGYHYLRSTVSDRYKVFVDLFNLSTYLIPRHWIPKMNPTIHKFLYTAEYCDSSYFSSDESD

Row | SMILES | IC50
1 | O=C(CC1c2ccccc2-c2nncn21)C1CCCCC1 (stereo not drawn) [Compound 43, 2-(5H-[1,2,4]triazolo[3,4-a]isoindol-5-yl)-1-cyclohexylethan-1-one] | > 10 µM
2 | O=C(CC1c2ccccc2-c2cnnn21)C1CCC(F)(F)CC1 (stereo not drawn) [Compound 54, 2-(8H-[1,2,3]triazolo[5,1-a]isoindol-8-yl)-1-(4,4-difluorocyclohexyl)ethan-1-one] | > 10 µM
3 | OC(CC1c2ccccc2-c2nncn21)C1CCCCC1 (stereo not drawn) [Compound 69, 2-(5H-[1,2,4]triazolo[3,4-a]isoindol-5-yl)-1-cyclohexylethan-1-ol] | > 10 µM
